This data set has as its system CCRIS mutagenicity, Ames/micronucleus/aberration tests. The data set can be described thus: CCRIS mutagenicity studies.
Where [1] appears, read: Test System: AMES SALMONELLA TYPHIMURIUM, Strain/Indicator: TA100, Metabolic Activation: NONE, Method: PREINCUBATION

Activity calls are given as the source filed them. No rule for the calls is given here.

Turning to `COC(=O)NC(=S)Nc1ccccc1NC(=S)NC(=O)OC`, the mutagenic call by setting is: (Test System: AMES SALMONELLA TYPHIMURIUM, Strain/Indicator: TA97, Metabolic Activation: HAMSTER, LIVER, S-9, AROCLOR 1254 (10 OR 30%), Method: PREINCUBATION) “inactive; negative”; (Test System: AMES SALMONELLA TYPHIMURIUM, Strain/Indicator: TA97, Metabolic Activation: NONE, Method: PREINCUBATION) “inactive; negative”; (Test System: AMES SALMONELLA TYPHIMURIUM, Strain/Indicator: TA97, Metabolic Activation: RAT, LIVER, S-9, AROCLOR 1254 (10 OR 30%), Method: PREINCUBATION) “inactive; negative”; (Test System: AMES SALMONELLA TYPHIMURIUM, Strain/Indicator: TA98, Metabolic Activation: HAMSTER, LIVER, S-9, AROCLOR 1254 (10 OR 30%), Method: PREINCUBATION) “inactive; negative”; (Test System: AMES SALMONELLA TYPHIMURIUM, Strain/Indicator: TA98, Metabolic Activation: HAMSTER, LIVER, S-9, AROCLOR 1254 (30%), Method: PREINCUBATION) “active; positive”; (Test System: AMES SALMONELLA TYPHIMURIUM, Strain/Indicator: TA98, Metabolic Activation: NONE, Method: PREINCUBATION) “inactive; negative”. Further, the mutagenic call runs as follows: (Test System: AMES SALMONELLA TYPHIMURIUM, Strain/Indicator: TA98, Metabolic Activation: RAT, LIVER, S-9, AROCLOR 1254 (10 OR 30%), Method: PREINCUBATION) “inactive; negative”; (Test System: AMES SALMONELLA TYPHIMURIUM, Strain/Indicator: TA98, Metabolic Activation: RAT, LIVER, S-9, AROCLOR 1254 (30%), Method: PREINCUBATION) “inactive; negative”; (Test System: AMES SALMONELLA TYPHIMURIUM, Strain/Indicator: TA100, Metabolic Activation: HAMSTER, LIVER, S-9, AROCLOR 1254 (10 OR 30%), Method: PREINCUBATION) “inactive; negative”; (Test System: AMES SALMONELLA TYPHIMURIUM, Strain/Indicator: TA100, Metabolic Activation: HAMSTER, LIVER, S-9, AROCLOR 1254 (30%), Method: PREINCUBATION) “active; positive”; under setting [1], “inactive; negative”; (Test System: AMES SALMONELLA TYPHIMURIUM, Strain/Indicator: TA100, Metabolic Activation: RAT, LIVER, S-9, AROCLOR 1254 (10 OR 30%), Method: PREINCUBATION) “inactive; negative”. Besides, the mutagenic call was “inactive; negative” (Test System: AMES SALMONELLA TYPHIMURIUM, Strain/Indicator: TA1535, Metabolic Activation: HAMSTER, LIVER, S-9, AROCLOR 1254 (10 OR 30%), Method: PREINCUBATION); “inactive; negative” (Test System: AMES SALMONELLA TYPHIMURIUM, Strain/Indicator: TA1535, Metabolic Activation: NONE, Method: PREINCUBATION); “inactive; negative” (Test System: AMES SALMONELLA TYPHIMURIUM, Strain/Indicator: TA1535, Metabolic Activation: RAT, LIVER, S-9, AROCLOR 1254 (10 OR 30%), Method: PREINCUBATION); “inactive; negative” (Test System: AMES SALMONELLA TYPHIMURIUM, Strain/Indicator: TA1537, Metabolic Activation: HAMSTER, LIVER, S-9, AROCLOR 1254 (30%), Method: PREINCUBATION); “inactive; negative” (Test System: AMES SALMONELLA TYPHIMURIUM, Strain/Indicator: TA1537, Metabolic Activation: NONE, Method: PREINCUBATION); “inactive; negative” (Test System: AMES SALMONELLA TYPHIMURIUM, Strain/Indicator: TA1537, Metabolic Activation: RAT, LIVER, S-9, AROCLOR 1254 (30%), Method: PREINCUBATION).

With `Cc1cccc2c1c([N+](=O)[O-])cc[n+]2[O-]`, the mutagenic call (Test System: UDS RODENT PRIMARY CELLS, Strain/Indicator: THY INCORP (NON-S-PHASE), Metabolic Activation: NONE, Method: AUTORADIOGRAPHY) was “active; positive”.

Regarding `N=c1c2ncn(C(c3ccccc3)(c3ccccc3)c3ccccc3)c2ncn1O`, the mutagenic call runs as follows: (Test System: AMES SALMONELLA TYPHIMURIUM, Strain/Indicator: TA97, Metabolic Activation: NONE, Method: STANDARD PLATE) “inactive; negative”; (Test System: AMES SALMONELLA TYPHIMURIUM, Strain/Indicator: TA97, Metabolic Activation: RAT, LIVER, S-9, AROCLOR 1254, Method: STANDARD PLATE) “inactive; negative”; (Test System: AMES SALMONELLA TYPHIMURIUM, Strain/Indicator: TA98, Metabolic Activation: NONE, Method: STANDARD PLATE) “inactive; negative”; (Test System: AMES SALMONELLA TYPHIMURIUM, Strain/Indicator: TA98, Metabolic Activation: RAT, LIVER, S-9, AROCLOR 1254, Method: STANDARD PLATE) “active; positive”; (Test System: AMES SALMONELLA TYPHIMURIUM, Strain/Indicator: TA100, Metabolic Activation: NONE, Method: STANDARD PLATE) “inactive; negative”; (Test System: AMES SALMONELLA TYPHIMURIUM, Strain/Indicator: TA100, Metabolic Activation: RAT, LIVER, S-9, AROCLOR 1254, Method: STANDARD PLATE) “inactive; negative”.

For `CCN(CC)c1ccc(N=Nc2sc(C=O)c(Cl)c2C#N)c(NC(=O)COC)c1`, under “End Point: IN VITRO CHROMOSOMAL ABERRATIONS, Test System: CHL CELLS, Metabolic Activation: RAT, LIVER, S-9, SODIUM PHENOBARBITAL AND 5,6-BENZOFLAVONE”, the mutagenic call was “inactive; negative; precipitation occurred at all doses”.

Turning to `CC1(c2ccc(-c3ccccc3)cc2)CO1` (configuration not stated), the mutagenic call under setting [1] is “active; positive”.

These data come from PubChem BioAssay AID1259407 (Chemical Carcinogenesis Research Information System (CCRIS), 2018).
